Data as given in the SangsterLogP compilation.

assay: method code RP-HPLC, from DOI: 10.1021/jm030408h, PMID: 14971904

SMILES | logP
COc1ccc2c3c1O[C@H]1C[C@@H](O)C=C[C@@]31CCN(C)C2 | 0.21
COc1ccc2c3c1O[C@H]1C(=O)CC[C@@]4(O)[C@@H](C2)N(C)CC[C@]314 | 0.37
CCc1nn(CCCN2CCN(c3cccc(Cl)c3)CC2)c(=O)n1CCOc1ccccc1 | 4.95
CC[C@H]1OC(=O)[C@H](C)[C@@H](O[C@H]2C[C@@](C)(OC)[C@@H](O)[C@H](C)O2)[C@H](C)[C@@H](O[C@@H]2O[C@H](C)C[C@H](N(C)C)[C@H]2O)[C@](C)(O)C[C@@H](C)CN(C)[C@H](C)[C@@H](O)[C@]1(C)O | 0.9
CN1CC(C(=O)NC2(C)OC3(O)C4CCCN4C(=O)C(Cc4ccccc4)N3C2=O)C=C2c3cccc4[nH]cc(c34)CC21 (stereo not given) | 4.38
C[N+](C)([O-])CCC=C1c2ccccc2CCc2ccccc21 | 3.14
C#CCCCC(=O)c1cc(C(C)(C)C)c(O)c(C(C)(C)C)c1 | 5.63
OC(CNCC(O)C1CCc2cc(F)ccc2O1)C1CCc2cc(F)ccc2O1 (stereo not given) | 2.76
CCC(C)n1ncn(-c2ccc(N3CCN(c4ccc(OC[C@H]5CO[C@](Cn6cncn6)(c6ccc(Cl)cc6Cl)O5)cc4)CC3)cc2)c1=O (stereo not given in full) | 5.9
CCCCCc1cc(O)c2c(c1)OC(C)(C)[C@@H]1CCC(C)=C[C@@H]21 | 6.99
